Data taken from article PMC10882719 (Frontiers in Neuroscience, 2024).
Where two headings read alike, the source gives them in different places.

How the values were obtained:
Format in all cases: cell-based
168 GPCRs [1] = molecular target: T1, 168 GPCRs (Homo sapiens, UniProt O14842)
T1 construct: host or cells: PathHunter cell lines

168 GPCRs [2] = molecular target: T2, 168 GPCRs (Homo sapiens, UniProt O43613)
T2 construct: host or cells: PathHunter cell lines
T2 sequence (O43613 1-425): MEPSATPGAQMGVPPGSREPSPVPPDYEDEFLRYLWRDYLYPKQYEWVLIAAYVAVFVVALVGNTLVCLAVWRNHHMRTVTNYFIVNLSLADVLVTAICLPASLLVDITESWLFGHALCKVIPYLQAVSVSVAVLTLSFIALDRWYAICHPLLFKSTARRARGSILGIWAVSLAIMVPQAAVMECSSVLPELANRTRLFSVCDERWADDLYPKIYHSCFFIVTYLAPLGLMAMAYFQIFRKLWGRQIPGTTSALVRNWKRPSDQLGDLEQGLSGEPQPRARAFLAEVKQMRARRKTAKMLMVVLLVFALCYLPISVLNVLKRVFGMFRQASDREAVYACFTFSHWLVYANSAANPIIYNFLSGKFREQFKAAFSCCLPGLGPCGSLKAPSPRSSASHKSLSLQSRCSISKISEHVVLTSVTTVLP

168 GPCRs [3] = molecular target: T3, 168 GPCRs (Homo sapiens, UniProt P08588)
T3 construct: host or cells: PathHunter cell lines

168 GPCRs [4] = molecular target: T4, 168 GPCRs (Homo sapiens, UniProt P25024)
T4 construct: host or cells: PathHunter cell lines
T4 sequence (P25024 1-350): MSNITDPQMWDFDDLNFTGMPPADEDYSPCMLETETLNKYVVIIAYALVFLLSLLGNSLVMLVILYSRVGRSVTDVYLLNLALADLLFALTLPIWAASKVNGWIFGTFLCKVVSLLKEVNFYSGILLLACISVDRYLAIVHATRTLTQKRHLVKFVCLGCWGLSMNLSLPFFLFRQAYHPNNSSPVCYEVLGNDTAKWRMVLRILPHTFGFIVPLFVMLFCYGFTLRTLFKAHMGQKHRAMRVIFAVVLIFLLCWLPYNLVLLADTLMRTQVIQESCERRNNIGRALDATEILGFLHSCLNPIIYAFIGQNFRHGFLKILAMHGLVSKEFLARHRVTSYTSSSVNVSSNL

168 GPCRs [5] = molecular target: T5, 168 GPCRs (Homo sapiens, UniProt P28336); settings: NMBR
T5 construct: host or cells: PathHunter cell lines

168 GPCRs [6] = molecular target: T6, 168 GPCRs (Homo sapiens, UniProt P41597)
T6 construct: host or cells: PathHunter cell lines

168 GPCRs [7] = molecular target: T7, 168 GPCRs (Homo sapiens, UniProt P49682)
T7 construct: host or cells: PathHunter cell lines
T7 sequence (P49682 1-368): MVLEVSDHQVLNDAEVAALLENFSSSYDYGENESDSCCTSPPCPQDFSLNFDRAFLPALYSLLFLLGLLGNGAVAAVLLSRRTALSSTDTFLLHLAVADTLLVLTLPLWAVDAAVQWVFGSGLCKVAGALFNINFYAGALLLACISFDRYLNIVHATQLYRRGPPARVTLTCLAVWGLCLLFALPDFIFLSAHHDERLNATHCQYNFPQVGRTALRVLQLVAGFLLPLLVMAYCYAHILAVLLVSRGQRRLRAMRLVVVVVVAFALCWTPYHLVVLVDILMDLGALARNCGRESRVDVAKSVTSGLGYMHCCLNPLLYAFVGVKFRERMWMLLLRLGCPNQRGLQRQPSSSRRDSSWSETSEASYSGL

168 GPCRs [8] = molecular target: T8, 168 GPCRs (Homo sapiens, UniProt P49683); settings: PRLHR
T8 construct: host or cells: PathHunter cell lines
T8 sequence (P49683 1-370): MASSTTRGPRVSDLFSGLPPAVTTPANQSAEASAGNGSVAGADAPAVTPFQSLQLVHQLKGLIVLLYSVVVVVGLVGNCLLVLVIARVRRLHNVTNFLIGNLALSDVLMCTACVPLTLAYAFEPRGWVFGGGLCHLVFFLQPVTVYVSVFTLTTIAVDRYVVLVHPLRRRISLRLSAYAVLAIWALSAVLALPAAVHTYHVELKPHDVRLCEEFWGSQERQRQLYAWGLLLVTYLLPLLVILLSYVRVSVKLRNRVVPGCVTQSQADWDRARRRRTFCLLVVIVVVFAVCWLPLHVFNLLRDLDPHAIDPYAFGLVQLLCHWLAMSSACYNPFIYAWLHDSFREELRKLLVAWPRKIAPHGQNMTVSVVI

T6 sequence (P41597 whole entry): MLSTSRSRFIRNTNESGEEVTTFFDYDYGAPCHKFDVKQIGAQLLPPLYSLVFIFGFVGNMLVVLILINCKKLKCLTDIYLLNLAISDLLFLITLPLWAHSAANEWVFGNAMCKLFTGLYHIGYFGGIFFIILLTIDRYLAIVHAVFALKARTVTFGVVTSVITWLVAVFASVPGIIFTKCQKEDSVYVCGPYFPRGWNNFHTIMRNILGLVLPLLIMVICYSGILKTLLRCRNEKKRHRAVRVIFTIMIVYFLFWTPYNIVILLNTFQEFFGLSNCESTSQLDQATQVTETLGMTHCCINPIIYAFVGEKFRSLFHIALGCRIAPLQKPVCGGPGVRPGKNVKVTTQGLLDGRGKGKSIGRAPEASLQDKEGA
T3 sequence (P08588 whole entry): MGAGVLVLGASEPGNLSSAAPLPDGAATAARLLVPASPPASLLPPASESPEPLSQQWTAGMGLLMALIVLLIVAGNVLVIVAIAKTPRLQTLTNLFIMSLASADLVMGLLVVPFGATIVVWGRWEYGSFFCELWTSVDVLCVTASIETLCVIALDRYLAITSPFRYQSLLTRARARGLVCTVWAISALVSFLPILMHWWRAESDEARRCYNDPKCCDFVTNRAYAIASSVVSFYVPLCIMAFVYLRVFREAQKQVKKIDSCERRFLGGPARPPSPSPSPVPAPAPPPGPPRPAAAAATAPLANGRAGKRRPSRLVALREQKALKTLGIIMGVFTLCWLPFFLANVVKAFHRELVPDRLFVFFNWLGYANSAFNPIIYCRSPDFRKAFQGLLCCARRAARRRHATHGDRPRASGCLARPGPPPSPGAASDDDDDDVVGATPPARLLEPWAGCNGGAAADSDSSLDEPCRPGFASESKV
T5 sequence (P28336 whole entry): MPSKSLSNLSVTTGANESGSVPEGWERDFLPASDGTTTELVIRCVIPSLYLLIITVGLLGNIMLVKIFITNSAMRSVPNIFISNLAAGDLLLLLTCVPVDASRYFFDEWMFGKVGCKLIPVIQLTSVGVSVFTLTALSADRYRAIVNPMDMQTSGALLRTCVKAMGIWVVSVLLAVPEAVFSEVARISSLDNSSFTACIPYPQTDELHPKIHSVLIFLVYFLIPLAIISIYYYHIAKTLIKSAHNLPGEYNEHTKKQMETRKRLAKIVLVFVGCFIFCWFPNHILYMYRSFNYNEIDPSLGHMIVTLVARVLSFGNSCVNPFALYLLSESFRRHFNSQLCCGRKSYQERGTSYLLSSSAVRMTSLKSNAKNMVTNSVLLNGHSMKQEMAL
T1 sequence (O14842 whole entry): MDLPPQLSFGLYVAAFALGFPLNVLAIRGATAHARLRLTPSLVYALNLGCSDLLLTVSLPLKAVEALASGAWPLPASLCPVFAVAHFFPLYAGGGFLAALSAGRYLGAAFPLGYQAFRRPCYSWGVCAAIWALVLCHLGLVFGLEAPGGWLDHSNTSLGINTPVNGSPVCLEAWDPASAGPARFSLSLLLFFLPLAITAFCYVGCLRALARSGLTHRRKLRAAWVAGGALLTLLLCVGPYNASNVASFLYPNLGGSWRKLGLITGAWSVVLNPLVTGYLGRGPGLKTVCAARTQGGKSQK

| SMILES | % Agonist Activity (168 GPCRs [1]; FFAR1, 1 uM) [%] | % Antagonist Activity (168 GPCRs [1]; FFAR1, 1 uM) [%] | % Agonist Activity (168 GPCRs [1]; FFAR1, 10 uM) [%] | % Antagonist Activity (168 GPCRs [1]; FFAR1, 10 uM) [%] | % Agonist Activity (168 GPCRs [2]; HCRTR1, 1 uM) [%] | % Antagonist Activity (168 GPCRs [2]; HCRTR1, 1 uM) [%] | % Agonist Activity (168 GPCRs [2]; HCRTR1, 10 uM) [%] | % Antagonist Activity (168 GPCRs [2]; HCRTR1, 10 uM) [%] | % Agonist Activity (168 GPCRs [3]; ADRB1, 1 uM) [%] | % Antagonist Activity (168 GPCRs [3]; ADRB1, 1 uM) [%] | % Agonist Activity (168 GPCRs [3]; ADRB1, 10 uM) [%] | % Antagonist Activity (168 GPCRs [3]; ADRB1, 10 uM) [%] | % Agonist Activity (168 GPCRs [4]; CXCR1, 1 uM) [%] | % Antagonist Activity (168 GPCRs [4]; CXCR1, 1 uM) [%] | % Agonist Activity (168 GPCRs [4]; CXCR1, 10 uM) [%] | % Antagonist Activity (168 GPCRs [4]; CXCR1, 10 uM) [%] | % Agonist Activity (168 GPCRs [5]; 1 uM) [%] | % Antagonist Activity (168 GPCRs [5]; 1 uM) [%] | % Agonist Activity (168 GPCRs [5]; 10 uM) [%] | % Antagonist Activity (168 GPCRs [5]; 10 uM) [%] | other results |
| --- | --- | --- | --- | --- | --- | --- | --- | --- | --- | --- | --- | --- | --- | --- | --- | --- | --- | --- | --- | --- | --- |
| CNC(C)Cc1ccc2c(c1)OCO2 (stereo not shown) [MDMA, 3,4-Methylenedioxy methamphetamine, reference compound] | 3.9 | -5.6 | 7 | -0.4 | -0.2 | 8.6 | -0.1 | 15 | 0.6 | 2 | 0.5 | 1.9 | -0.4 | -2.4 | -0.3 | -4.6 | 0 | -2.5 | 0.1 | 4.3 | % Agonist Activity (168 GPCRs [6]; CCR2, 1 uM): 0.5%; % Antagonist Activity (168 GPCRs [6]; CCR2, 1 uM): 9.2%; % Agonist Activity (168 GPCRs [6]; CCR2, 10 uM): 0.7%; % Antagonist Activity (168 GPCRs [6]; CCR2, 10 uM): 11.1%; % Agonist Activity (168 GPCRs [7]; CXCR3, 1 uM): -3.7%; % Antagonist Activity (168 GPCRs [7]; CXCR3, 1 uM): 11.3%; % Agonist Activity (168 GPCRs [7]; CXCR3, 10 uM): -4.7%; % Antagonist Activity (168 GPCRs [7]; CXCR3, 10 uM): 17.9%; % Agonist Activity (168 GPCRs [8]; Conc 1 uM): 1.5%; % Antagonist Activity (168 GPCRs [8]; Conc 1 uM): 6%; % Agonist Activity (168 GPCRs [8]; Conc 10 uM): -0.3%; % Antagonist Activity (168 GPCRs [8]; Conc 10 uM): 10.8% |
| CNC(C)C(=O)c1ccc2c(c1)OCO2 (stereo not shown) [methylone] | 1.7 | -7.9 | 4.5 | -13.8 | -0.1 | 2.3 | -0.1 | 1.2 | -1.7 | -0.8 | -1.4 | -1.2 | -0.5 | 12.1 | -0.1 | 3.1 | 1.1 | 10.3 | 1.2 | 13.2 | % Agonist Activity (168 GPCRs [6]; CCR2, 1 uM): -0.4%; % Antagonist Activity (168 GPCRs [6]; CCR2, 1 uM): 2%; % Agonist Activity (168 GPCRs [6]; CCR2, 10 uM): -0.5%; % Antagonist Activity (168 GPCRs [6]; CCR2, 10 uM): 4.9%; % Agonist Activity (168 GPCRs [7]; CXCR3, 1 uM): -0.2%; % Antagonist Activity (168 GPCRs [7]; CXCR3, 1 uM): 4.5%; % Agonist Activity (168 GPCRs [7]; CXCR3, 10 uM): 1.6%; % Antagonist Activity (168 GPCRs [7]; CXCR3, 10 uM): -3.9%; % Agonist Activity (168 GPCRs [8]; Conc 1 uM): -2.2%; % Antagonist Activity (168 GPCRs [8]; Conc 1 uM): 17.8%; % Agonist Activity (168 GPCRs [8]; Conc 10 uM): -0.2%; % Antagonist Activity (168 GPCRs [8]; Conc 10 uM): 15.8% |
